Test results as given in PubChem BioAssay AID206 (DTP/NCI, 2004).
“And” between values parts separate entries of the source, which are not always exact repeats. Equal entries are not always repeated. Results filed as inconclusive are left out.

Tested on: nude mice, HT29 intrarenal xenograft, tumor weight T/C
Experiment: NCI In Vivo Anticancer Drug Screen. Data for tumor model HT29;CX-1 Human Adenocarcinoma (MER+) (intrarenal inoculation) in NU/NU Swiss (nude) mice
Conditions: endpoint: mean tumor weight change, higher = larger tumour
Outline: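 Mice with transplanted tumors are dosed with compound while controls get vehicle only. Survival or tumor burden is then assessed per group, and the treated value is expressed relative to control.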

[1] = dose: 400.0 mg/kg/injection, schedule: Q04DX004 (sc), vehicle: saline with Tween-80
[2] = dose: 100.0 mg/kg/injection, schedule: Q01DX010 (sc), vehicle: saline with Tween-80
[3] = dose: 6.25 mg/kg/injection, schedule: Q01DX010 (sc), vehicle: saline
[4] = dose: 12.5 mg/kg/injection, schedule: Q01DX010 (sc), vehicle: saline
[5] = dose: 25.0 mg/kg/injection, schedule: Q01DX010 (sc), vehicle: saline
[6] = dose: 75.0 mg/kg/injection, schedule: Q04DX004 (sc), vehicle: saline
[7] = dose: 150.0 mg/kg/injection, schedule: Q04DX004 (sc), vehicle: saline
[8] = dose: 300.0 mg/kg/injection, schedule: Q04DX004 (sc), vehicle: saline

NC(=O)c1ncn(C2OC(CO)C(O)C2O)n1 (stereo unspecified)
T/C (dose: 225.0 mg/kg/injection, schedule: Q04DX004 (sc), vehicle: saline): 93 % of control
T/C (dose: 450.0 mg/kg/injection, schedule: Q04DX004 (sc), vehicle: saline): 75 % of control
T/C (dose: 900.0 mg/kg/injection, schedule: Q04DX004 (sc), vehicle: saline): 61 % of control

C/C=C/c1cc2n(c1)C(=O)c1cc(OC3OC(C)C(NC)C(C)(O)C3O)c(C)c(O)c1NC2O (stereo unspecified)
T/C (dose: 12.5 micrograms/kg/injection, schedule: Q04DX004 (sc), vehicle: saline): 69 % of control
T/C (dose: 25.0 micrograms/kg/injection, schedule: Q04DX004 (sc), vehicle: saline): 101 % of control
T/C (dose: 50.0 micrograms/kg/injection, schedule: Q04DX004 (sc), vehicle: saline): 83 % of control
T/C (dose: 100.0 micrograms/kg/injection, schedule: Q04DX004 (sc), vehicle: saline): 94 % of control

CSc1cc(=O)n2c3ccccc3c3ccnc1c32
T/C (dose: 80.0 mg/kg/injection, schedule: Q04DX004 (sc), vehicle: saline with Tween-80): 88 % of control
T/C (dose: 160.0 mg/kg/injection, schedule: Q04DX004 (sc), vehicle: saline with Tween-80): 91 % of control
T/C (dose: 320.0 mg/kg/injection, schedule: Q04DX004 (sc), vehicle: saline with Tween-80): 110 % of control
T/C (dose: 640.0 mg/kg/injection, schedule: Q04DX004 (sc), vehicle: saline with Tween-80): 58 % of control

O=C1NC(=O)/C(=C/C=C/c2ccccc2)S1
T/C (dose: 200.0 mg/kg/injection, schedule: Q04DX004 (sc), vehicle: saline with Tween-80): 76 % of control
T/C [1]: 68 % of control
T/C (dose: 800.0 mg/kg/injection, schedule: Q04DX004 (sc), vehicle: saline with Tween-80): 94 % of control
T/C (dose: 1600.0 mg/kg/injection, schedule: Q04DX004 (sc), vehicle: saline with Tween-80): 83 % of control

O=C1C2CC=CCC2C(=O)N1SC(Cl)(Cl)Cl (stereo unspecified)
T/C (dose: 18.75 mg/kg/injection, schedule: Q04DX004 (sc), vehicle: saline with Tween-80): 96 % of control
T/C (dose: 37.5 mg/kg/injection, schedule: Q04DX004 (sc), vehicle: saline with Tween-80): 88 % of control
T/C (dose: 300.0 mg/kg/injection, schedule: Q04DX004 (sc), vehicle: saline with Tween-80): 101 % of control
T/C (dose: 600.0 mg/kg/injection, schedule: Q04DX004 (sc), vehicle: saline with Tween-80): 71 % of control

C=C(NC(=O)C(=C)NC(=O)c1csc(C2=NC3c4csc(n4)C4NC(=O)c5csc(n5)C(C(C)(O)C(C)O)NC(=O)C5CSC(=N5)/C(=C/C)NC(=O)C(C(C)O)NC(=O)c5csc(n5)C3(CC2)NC(=O)C(C)NC(=O)C(=C)NC(=O)C(C)NC(=O)C(C(C)CC)NC2C=Cc3c(C(C)O)cc(nc3C2O)C(=O)OC4C)n1)C(N)=O (stereo unspecified)
T/C (dose: 200.0 mg/kg/injection, schedule: Q01DX010 (sc), vehicle: Klucel (hydroxypropylcellulose) (HPC)): 34 % of control
T/C (dose: 800.0 mg/kg/injection, schedule: Q01DX010 (sc), vehicle: Klucel (hydroxypropylcellulose) (HPC)): 27 % of control and 49 % of control
T/C (dose: 3200.0 mg/kg/injection, schedule: Q01DX010 (sc), vehicle: Klucel (hydroxypropylcellulose) (HPC)): 50 % of control

O=CC=O
T/C (dose: 50.0 mg/kg/injection, schedule: Q01DX010 (sc), vehicle: saline with Tween-80): 64 % of control
T/C [2]: 66 % of control
T/C (dose: 200.0 mg/kg/injection, schedule: Q01DX010 (sc), vehicle: saline with Tween-80): 38 % of control

N/C(=N\O)c1cn(C2OC(CO)C(O)C2O)c2ncnc(N)c12 (stereo unspecified)
T/C (dose: 5.0 mg/kg/injection, schedule: Q04DX004 (sc), vehicle: Klucel (hydroxypropylcellulose) (HPC)): 67 % of control

N#CC(=C1C=CC(=NO)C=C1)c1ccc(Cl)cc1
T/C (dose: 50.0 mg/kg/injection, schedule: Q04DX004 (sc), vehicle: saline with Tween-80): 80 % of control
T/C (dose: 100.0 mg/kg/injection, schedule: Q04DX004 (sc), vehicle: saline with Tween-80): 90 % of control
T/C [1]: 113 % of control

CCOC(=O)C(N)CSC(=O)NC (stereo unspecified)
T/C (dose: 100.0 mg/kg/injection, schedule: Q04DX004 (sc), vehicle: saline): 92 % of control
T/C (dose: 200.0 mg/kg/injection, schedule: Q04DX004 (sc), vehicle: saline): 96 % of control
T/C (dose: 400.0 mg/kg/injection, schedule: Q04DX004 (sc), vehicle: saline): 103 % of control
T/C (dose: 800.0 mg/kg/injection, schedule: Q04DX004 (sc), vehicle: saline): 62 % of control

COc1ccc2nc3cc(Cl)ccc3c(NCCNCCNCCNc3c4ccc(Cl)cc4nc4ccc(OC)cc34)c2c1
T/C [2]: 116 % of control
T/C (dose: 400.0 mg/kg/injection, schedule: Q01DX010 (sc), vehicle: saline with Tween-80): 124 % of control
T/C (dose: 800.0 mg/kg/injection, schedule: Q01DX010 (sc), vehicle: saline with Tween-80): 93 % of control

N=[N+]=CC(=O)OCC(N)C(=O)O (stereo unspecified)
T/C (dose: 3.13 mg/kg/injection, schedule: Q01DX010 (sc), vehicle: saline): 212 % of control
T/C [3]: 87 % of control
T/C [4]: 85 % of control
T/C [5]: 123 % of control

N=C(N)Sc1cc(O)ccc1O
T/C [6]: 49 % of control
T/C [7]: 54 % of control
T/C [8]: 54 % of control

CCOC(=O)CNC(=O)CCCCSc1ncnc2nc[nH]c12
T/C (dose: 225.0 mg/kg/injection, schedule: Q04DX004 (sc), vehicle: saline with Tween-80): 162 % of control
T/C (dose: 450.0 mg/kg/injection, schedule: Q04DX004 (sc), vehicle: saline with Tween-80): 103 % of control

O=CC(O)C(O)C(O)C(O)C(=O)O.[NH-]C1CCCCC1[NH-].[Pt+2] (stereo unspecified)
T/C (dose: 9.38 mg/kg/injection, schedule: Q04DX004 (sc), vehicle: suspension in saline): 44 % of control
T/C (dose: 18.75 mg/kg/injection, schedule: Q04DX004 (sc), vehicle: suspension in saline): 62 % of control

Cc1c2ccc3ccccc3c2c[n+]2ccccc12
T/C (dose: 3.75 mg/kg/injection, schedule: Q04DX004 (sc), vehicle: Klucel (hydroxypropylcellulose) (HPC)): 84 % of control
T/C (dose: 7.5 mg/kg/injection, schedule: Q04DX004 (sc), vehicle: Klucel (hydroxypropylcellulose) (HPC)): 66 % of control
T/C (dose: 15.0 mg/kg/injection, schedule: Q04DX004 (sc), vehicle: Klucel (hydroxypropylcellulose) (HPC)): 50 % of control
T/C (dose: 30.0 mg/kg/injection, schedule: Q04DX004 (sc), vehicle: Klucel (hydroxypropylcellulose) (HPC)): 41 % of control

COc1cc(Cc2nccc3cc(OC)c(OC)cc23)c(C(C)=O)c(OC)c1
T/C (dose: 40.0 mg/kg/injection, schedule: Q01DX010 (sc), vehicle: saline): 35 % of control
T/C (dose: 80.0 mg/kg/injection, schedule: Q01DX010 (sc), vehicle: saline): 50 % of control
T/C (dose: 160.0 mg/kg/injection, schedule: Q01DX010 (sc), vehicle: saline): 19 % of control

C[N+](C)(C)c1ncnc2c1ncn2C1CCCO1 (stereo unspecified)
T/C [3]: 80 % of control
T/C [4]: 120 % of control
T/C [5]: 90 % of control

NC1=NCN(C2OC(CO)C(O)C2O)C(=O)N1 (stereo unspecified)
T/C [5]: 70 % of control
T/C (dose: 50.0 mg/kg/injection, schedule: Q01DX010 (sc), vehicle: saline): 31 % of control
T/C (dose: 100.0 mg/kg/injection, schedule: Q01DX010 (sc), vehicle: saline): 38 % of control

CCC/C=C/C=C/C(=O)OC1/C(=C/C(=O)OC)CC2CC(C(C)O)OC(=O)CC(O)CC3CC(OC(C)=O)C(C)(C)C(O)(CC4C/C(=C/C(=O)OC)CC(/C=C/C(C)(C)C1(O)O2)O4)O3 (stereo unspecified)
T/C (dose: 0.25 mg/kg/injection, schedule: Q04DX004 (sc), vehicle: saline + alcohol): 95 % of control
T/C (dose: 0.5 mg/kg/injection, schedule: Q04DX004 (sc), vehicle: saline + alcohol): 110 % of control
T/C (dose: 1.0 mg/kg/injection, schedule: Q04DX004 (sc), vehicle: saline + alcohol): 33 % of control
T/C (dose: 2.0 mg/kg/injection, schedule: Q04DX004 (sc), vehicle: saline + alcohol): 47 % of control
T/C (dose: 4.0 mg/kg/injection, schedule: Q04DX004 (sc), vehicle: saline + alcohol): 53 % of control
T/C (dose: 8.0 mg/kg/injection, schedule: Q04DX004 (sc), vehicle: saline + alcohol): 88 % of control

N=C(N)SCc1cccc2c(=O)cc(-c3ccccc3)oc12
T/C (dose: 150.0 mg/kg/injection, schedule: Q04DX004 (sc), vehicle: suspension in saline): 110 % of control
T/C (dose: 300.0 mg/kg/injection, schedule: Q04DX004 (sc), vehicle: suspension in saline): 113 % of control
T/C (dose: 600.0 mg/kg/injection, schedule: Q04DX004 (sc), vehicle: suspension in saline): 106 % of control
T/C (dose: 1200.0 mg/kg/injection, schedule: Q04DX004 (sc), vehicle: suspension in saline): 69 % of control

NC(=O)NO
T/C (dose: 37.5 mg/kg/injection, schedule: Q04DX004 (sc), vehicle: saline): 75 % of control
T/C [6]: 79 % of control
T/C [7]: 75 % of control
T/C [8]: 86 % of control

N#Cc1cn(C2OC(CO)C(O)C2O)c2ncnc(N)c12 (stereo unspecified)
T/C (dose: 0.13 mg/kg/injection, schedule: Q01DX010 (sc), vehicle: saline): 81 % of control
T/C (dose: 0.25 mg/kg/injection, schedule: Q01DX010 (sc), vehicle: saline): 171 % of control
